Measured values from patent publication US20240368147A1, “CYCLIN K DEGRADER” (ADLAI NORTYE BIOPHARMA CO., LTD., priority 2021, published 2024).

Columns and labels:
Cyclin K (CCNK) = target: T1, Cyclin K (CCNK) (Homo sapiens, UniProt O75909+Q9NYV4); experiment: Western blot detection of Cyclin K (CCNK) degradation; format: cell-based; conditions: HEK293 cells, compared with the control; for degradation of Cyclin K (FIG. 2): 1 μM, 6 hours
T1 construct: total cell protein was extracted with RIPA cell lysis buffer; host or cells: HEK293
Protocol: Western Blot Detection of Cyclin K (CCNK) Degradation
Harvest HEK1293 cells (ATCC, cat #CRL-1573) and adjust the cell density to 1×10^6 cells per ml. Pour 1 ml of cell suspension per well into a 6-well plate and culture overnight. Take the compound stock solution and dilute it to the appropriate concentration with DMSO. Add the diluted compound into the cell wells using culture medium at a ratio of 1:1000 to ensure that the DMSO concentration in each well is 0.1%. At the same time, negative control wells were set, that is, complete culture medium containing 0.1% DMSO. After the compounds were treated and fixed at the concentrations shown in the figure and for different times, total cell protein was extracted with RIPA cell lysis buffer (Beyotime, cat #P0013B) added with PMSF. After protein quantification using the BCA protein quantification kit (Thermo Fisher, cat #A53225), each sample was subjected to subsequent SDS-PAGE and western blot experiments at a loading volume of 40 μg. The specific conditions are: after running the gel at 120V constant pressure for 90 minutes, transfer the film at a constant current of 320 mA for 60 minutes. Carry out antibody incubation according to the recommended dilution ratio and incubation time of the antibody. The information of the antibodies used in the experiment is as follows: Anti-GAPDH antibody (abcam, cat #ab9485), Anti-Cyclin K antibody (abcam, cat #ab85854), Goat anti-Rabbit IgG (H+L) Cross-Adsorbed Secondary Antibody, HRP (invitrogen, cat #G-21234). ECL luminescence solution (Thermo Fisher, cat #32209) was used to develop color and luminescence. A gel imaging system was used to analyze the final results.
According to the above detection method, some compounds of the present disclosure were evaluated.

[1] = test system: HGC27 (Human Gastric Cancer Cell); experiment: HGC27 cell growth inhibition (CellTiter-Glo); format: cell-based; conditions: Homo sapiens, HGC-27, 24 h, HGC27 cells, 24 hours, CellTiter-Glo; read-out: HGC27 CTG IC50
Protocol: Biological Activity Detection of HGC27 (Human Gastric Cancer Cell) Cell Growth Inhibition
This detection method is used to evaluate the cellular level biological activity of the compounds of the present disclosure.
Harvest HGC27 cells (purchased from Chinese Academy of Sciences), resuspend in complete culture medium and adjust the cell density to 0.2×10^6 cells per ml. Add 100 μL of cell suspension to each well into a 96-well plate and incubate overnight in a 37° C., 5% CO2 incubator. Prepare the compound to be tested and add it to the cell plate so that the maximum concentration of the compound is 10 μM. Set 8 concentration points according to 3-fold dilution. At the same time, set up a 100% inhibition control well, that is, a well with no cells added and only an equal volume of complete culture medium; and a 0% inhibition control well, that is, a cell well with 0.1% DMSO added. The above cell plate was cultured at 37° C. and 5% CO2 for 24 hours. Take out the cell culture plate, add 25 μl CellTiter-Glo® Luminescent Cell Viability reagent (promega cat #G7573) to each well, incubate in the dark for 10 minutes, transfer 100 μL to a white plate, and use Molecular Devices SpectraMax i3 to detect chemiluminescence. Data processing uses the following formula to calculate the inhibition rate: compound inhibition rate=(0% inhibition of control well signal−compound treatment well signal)/(0% inhibition of control well signal−100% inhibition of control well signal)*100%. The calculated data were fitted using graphpad prism software with four parameters and the corresponding IC50 was calculated.
According to the above detection method, the biological activity of the compound of the present disclosure was evaluated at the cellular level. Wherein, CR8 is a literature compound, which was purchased from Shanghai Bide Pharmaceutical.

T1 sequence (O75909 whole entry): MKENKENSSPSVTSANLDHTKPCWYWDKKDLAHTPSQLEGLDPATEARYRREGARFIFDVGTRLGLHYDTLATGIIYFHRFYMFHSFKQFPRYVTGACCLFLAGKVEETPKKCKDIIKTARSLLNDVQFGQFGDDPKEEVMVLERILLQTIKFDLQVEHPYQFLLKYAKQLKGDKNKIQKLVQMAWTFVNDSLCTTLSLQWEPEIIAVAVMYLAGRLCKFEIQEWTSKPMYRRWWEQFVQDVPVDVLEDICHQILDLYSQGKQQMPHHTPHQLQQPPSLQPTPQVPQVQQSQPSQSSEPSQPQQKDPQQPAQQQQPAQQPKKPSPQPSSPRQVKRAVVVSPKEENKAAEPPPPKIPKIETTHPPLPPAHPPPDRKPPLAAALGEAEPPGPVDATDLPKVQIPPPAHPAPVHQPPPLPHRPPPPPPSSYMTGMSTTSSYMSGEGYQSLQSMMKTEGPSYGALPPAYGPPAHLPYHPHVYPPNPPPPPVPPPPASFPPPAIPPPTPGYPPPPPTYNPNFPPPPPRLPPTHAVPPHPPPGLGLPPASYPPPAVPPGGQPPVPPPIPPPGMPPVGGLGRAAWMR
T1 sequence (Q9NYV4 whole entry): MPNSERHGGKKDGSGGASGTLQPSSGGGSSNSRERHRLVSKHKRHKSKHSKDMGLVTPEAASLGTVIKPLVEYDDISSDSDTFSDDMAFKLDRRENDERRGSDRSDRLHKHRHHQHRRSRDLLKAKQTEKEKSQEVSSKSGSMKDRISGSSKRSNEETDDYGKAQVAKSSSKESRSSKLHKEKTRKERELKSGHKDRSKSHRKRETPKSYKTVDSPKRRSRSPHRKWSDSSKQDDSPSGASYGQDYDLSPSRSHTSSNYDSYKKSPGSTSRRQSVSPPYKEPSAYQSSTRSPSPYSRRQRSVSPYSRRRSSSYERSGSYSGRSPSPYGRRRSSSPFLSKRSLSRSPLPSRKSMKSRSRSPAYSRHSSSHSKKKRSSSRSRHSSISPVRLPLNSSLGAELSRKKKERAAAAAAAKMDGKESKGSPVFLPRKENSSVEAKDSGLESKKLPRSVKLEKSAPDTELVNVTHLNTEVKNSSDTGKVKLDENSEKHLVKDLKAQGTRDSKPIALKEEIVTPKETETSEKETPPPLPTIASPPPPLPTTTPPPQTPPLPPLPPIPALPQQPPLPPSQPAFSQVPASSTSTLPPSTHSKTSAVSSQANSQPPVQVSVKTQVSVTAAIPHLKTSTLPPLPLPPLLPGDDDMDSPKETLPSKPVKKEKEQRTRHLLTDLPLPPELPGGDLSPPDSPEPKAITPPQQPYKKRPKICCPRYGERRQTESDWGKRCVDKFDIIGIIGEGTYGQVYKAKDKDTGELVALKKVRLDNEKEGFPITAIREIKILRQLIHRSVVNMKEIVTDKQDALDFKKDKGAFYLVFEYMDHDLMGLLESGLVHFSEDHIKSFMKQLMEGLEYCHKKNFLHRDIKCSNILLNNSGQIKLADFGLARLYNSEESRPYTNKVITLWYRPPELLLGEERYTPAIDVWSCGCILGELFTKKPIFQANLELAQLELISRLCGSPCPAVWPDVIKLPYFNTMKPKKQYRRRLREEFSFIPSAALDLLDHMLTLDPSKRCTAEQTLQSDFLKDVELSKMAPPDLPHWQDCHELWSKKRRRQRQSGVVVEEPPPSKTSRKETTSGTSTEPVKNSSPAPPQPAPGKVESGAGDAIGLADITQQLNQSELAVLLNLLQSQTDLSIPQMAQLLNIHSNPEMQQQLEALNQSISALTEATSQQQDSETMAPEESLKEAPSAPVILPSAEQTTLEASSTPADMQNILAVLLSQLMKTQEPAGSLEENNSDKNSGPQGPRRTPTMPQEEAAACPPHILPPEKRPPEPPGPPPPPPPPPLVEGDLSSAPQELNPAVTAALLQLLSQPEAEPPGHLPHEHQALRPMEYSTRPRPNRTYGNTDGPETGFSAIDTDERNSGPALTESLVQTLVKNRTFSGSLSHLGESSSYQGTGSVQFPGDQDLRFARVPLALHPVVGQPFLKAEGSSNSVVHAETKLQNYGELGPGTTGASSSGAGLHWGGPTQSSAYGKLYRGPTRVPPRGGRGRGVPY
T1 sequence (Q16531 whole entry partner): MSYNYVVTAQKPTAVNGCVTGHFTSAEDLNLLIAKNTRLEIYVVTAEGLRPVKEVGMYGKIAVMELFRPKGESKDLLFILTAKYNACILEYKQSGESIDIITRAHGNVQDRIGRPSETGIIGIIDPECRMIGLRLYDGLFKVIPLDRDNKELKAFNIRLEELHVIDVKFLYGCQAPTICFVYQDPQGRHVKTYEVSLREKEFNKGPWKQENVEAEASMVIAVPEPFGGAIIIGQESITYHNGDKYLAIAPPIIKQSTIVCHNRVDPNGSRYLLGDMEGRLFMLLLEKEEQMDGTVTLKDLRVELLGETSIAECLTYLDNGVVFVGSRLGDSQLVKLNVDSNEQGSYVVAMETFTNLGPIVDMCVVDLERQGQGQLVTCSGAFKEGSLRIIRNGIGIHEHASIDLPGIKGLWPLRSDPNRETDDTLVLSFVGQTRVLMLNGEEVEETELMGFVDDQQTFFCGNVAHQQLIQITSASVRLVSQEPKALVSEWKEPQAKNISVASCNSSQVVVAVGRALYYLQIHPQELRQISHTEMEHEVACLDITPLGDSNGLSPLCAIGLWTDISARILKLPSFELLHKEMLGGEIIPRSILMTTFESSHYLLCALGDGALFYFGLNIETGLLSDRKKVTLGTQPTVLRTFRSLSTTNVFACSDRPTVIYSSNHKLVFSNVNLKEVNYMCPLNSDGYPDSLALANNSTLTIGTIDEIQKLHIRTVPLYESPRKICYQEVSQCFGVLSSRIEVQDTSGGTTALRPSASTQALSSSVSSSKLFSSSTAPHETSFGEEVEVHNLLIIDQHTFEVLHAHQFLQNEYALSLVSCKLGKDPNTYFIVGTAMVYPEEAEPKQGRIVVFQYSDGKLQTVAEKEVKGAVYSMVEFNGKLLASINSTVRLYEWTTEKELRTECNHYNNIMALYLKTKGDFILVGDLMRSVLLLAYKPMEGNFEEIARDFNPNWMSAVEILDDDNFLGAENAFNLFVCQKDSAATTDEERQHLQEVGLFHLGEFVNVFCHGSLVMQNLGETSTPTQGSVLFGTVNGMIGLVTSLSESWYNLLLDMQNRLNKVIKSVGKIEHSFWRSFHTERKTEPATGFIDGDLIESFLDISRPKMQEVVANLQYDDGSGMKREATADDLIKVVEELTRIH

Row | Structure (SMILES) | degradation of Cyclin K (FIG. 1) (Cyclin K (CCNK); 0.1, 0.3, 1 μM, 6 h, 14 h, 24 h) | IC50 [1] [nM] | degradation of Cyclin K (FIG. 2) (Cyclin K (CCNK))
1 | FC(F)(F)c1cnc(NCc2ccc(-c3ccccn3)cc2)nc1OC1COC1 [Compound 1] | significantly induce the degradation of Cyclin K | 385 | 
2 | Clc1cnc(NCc2ccc(-c3ccccn3)cc2)nc1OC1COC1 [Compound 3] |  |  | significantly induce the degradation of Cyclin K
3 | FC(F)(F)c1cnc(NCc2ccc(-c3ccccn3)cn2)nc1OC1COC1 [Compound 4] |  |  | significantly induce the degradation of Cyclin K
4 | FC(F)(F)c1cnc(NCc2ccc(-c3cccnc3)cc2)nc1OC1COC1 [Compound 5] |  |  | significantly induce the degradation of Cyclin K
5 | FC(F)(F)c1cnc(NCc2ccc(-c3ccccn3)cc2)nc1NC1COC1 [Compound 8] |  |  | significantly induce the degradation of Cyclin K
6 | CS(=O)(=O)c1cncc(-c2nc(NCc3ccc(-c4ccccn4)cc3)ncc2C(F)(F)F)c1 [Compound 13] |  | 307 | significantly induce the degradation of Cyclin K
7 | OCc1cccc(-c2ccc(CNc3ncc(C(F)(F)F)c(OC4COC4)n3)cc2)n1 [Compound 18] |  | 281 | significantly induce the degradation of Cyclin K
